From ChEMBL document CHEMBL4000154, “Pyristriatins A and B: Pyridino-Cyathane Antibiotics from the Basidiomycete Cyathus cf. striatus” (J Nat Prod, 2016)
In brackets after ≈: the same amount, converted by molar mass. Activity calls are given as the source filed them. The rule behind the calls is not given here.

Columns and labels:
Micrococcus luteus = assay: Antibacterial activity against Micrococcus luteus DSM 1790 after 24 to 48 hrs by serial dilution method; type: functional
Wickerhamomyces anomalus = assay: Antifungal activity against Pichia anomala DSM 6766 after 24 to 48 hrs by serial dilution method; type: functional
Escherichia coli [1] = settings: DSM 498
Description: (§1) Antibacterial activity against Escherichia coli DSM 498 after 24 to 48 hrs by serial dilution method

Candida albicans = assay: Antifungal activity against Candida albicans DSM 1665 after 24 to 48 hrs by serial dilution method; type: functional
HUVEC = assay: Cytotoxicity against HUVEC after 5 days by MTT assay; type: cell-based; settings: Homo sapiens, 120 h
Pseudomonas aeruginosa = assay: Antibacterial activity against Pseudomonas aeruginosa PA14 after 24 to 48 hrs by serial dilution method; type: functional
[2] = system: Schizosaccharomyces pombe; assay: Antifungal activity against Schizosaccharomyces pombe DSM 70572 after 24 to 48 hrs by serial dilution method; type: functional
KB 3-1 = assay: Cytotoxicity against human KB 3.1 cells after 5 days by MTT assay; type: functional, cell-based; settings: KB 3-1, 120 h
Staphylococcus aureus = assay: Antibacterial activity against Staphylococcus aureus DSM 346 after 24 to 48 hrs by serial dilution method; type: functional
Mucor plumbeus = assay: Antifungal activity against Mucor plumbeus MUCL 49355 after 24 to 48 hrs by serial dilution method; type: functional
[3] = system: Chromobacterium violaceum; assay: Antibacterial activity against Chromobacterium violaceum DSM 30191 after 24 to 48 hrs by serial dilution method; type: functional
L929 = assay: Cytotoxicity against mouse L929 cells after 5 days by MTT assay; type: cell-based; settings: L929, 120 h
Rhodotorula glutinis = assay: Antifungal activity against Rhodotorula glutinis DSM 10134 after 24 to 48 hrs by serial dilution method; type: functional
Bacillus subtilis = assay: Antibacterial activity against Bacillus subtilis DSM 10 after 24 to 48 hrs by serial dilution method; type: functional
Escherichia coli [4] = assay: microbe, parasite or virus in culture; settings: DSM 498
Description: as §1

Molecule | MIC (Micrococcus luteus) | MIC (Wickerhamomyces anomalus) | MIC (Escherichia coli [1]) | MIC (Candida albicans) | IC50 (HUVEC) | MIC (Pseudomonas aeruginosa) | MIC [2] | IC50 (KB 3-1) | MIC (Staphylococcus aureus) | MIC (Mucor plumbeus) | MIC [3] | IC50 (L929) | MIC (Rhodotorula glutinis) | MIC (Bacillus subtilis) | MIC (Escherichia coli [4])
CO[C@H]1O[C@H]2c3c(cnc(C(=O)CO)c31)C[C@H](O)[C@@H]1C3=C(C(C)C)CC[C@]3(C)CC[C@@]21C | 16.7 µg/mL (≈ 37.8 µM) | inactive | inactive | inactive | 5.9 µM | inactive | 16.7 µg/mL (≈ 37.8 µM) | 14.7 µM | 16.7 µg/mL (≈ 37.8 µM) | 150 µg/mL (≈ 340 µM) | inactive | 16.3 µM | 16.7 µg/mL (≈ 37.8 µM) | 9.4 µg/mL (≈ 21.3 µM) | –
O=C(O)c1cn(C2CC2)c2cc(N3CCNCC3)c(F)cc2c1=O [CIPROFLOXACIN] | – | – | – | – | – | – | – | – | – | – | – | – | – | ≤ 2.3 µg/mL | ≤ 2.3 µg/mL
C/C(=C\c1csc(C)n1)[C@@H]1C[C@@H]2O[C@]2(C)CCC[C@H](C)[C@H](O)[C@@H](C)C(=O)C(C)(C)[C@@H](O)CC(=O)O1 [PATUPILONE] | – | – | – | – | 0.00055 µM | – | – | 0.00022 µM | – | – | – | – | – | – | –
NYSTATIN | – | 16.7 µg/mL | – | 16.7 µg/mL | – | – | 66.7 µg/mL | – | – | 9.4 µg/mL | – | – | 66.7 µg/mL | – | –
CN(C)[C@@H]1C(O)=C(C(N)=O)C(=O)[C@@]2(O)C(O)=C3C(=O)c4c(O)cccc4[C@@](C)(O)[C@H]3[C@H](O)[C@@H]12 [OXYTETRACYCLINE] | 8.3 µg/mL (≈ 18 µM) | – | – | – | – | – | – | – | 1 µg/mL (≈ 2.17 µM) | – | 2.1 µg/mL (≈ 4.56 µM) | – | – | – | –
CO[C@@H]1O[C@H]2c3c(cnc(C(=O)CO)c31)C[C@H](O)[C@@H]1C3=C(C(C)C)CC[C@]3(C)CC[C@@]21C | 8.3 µg/mL (≈ 18.8 µM) | inactive | inactive | inactive | 6.3 µM | inactive | 8.3 µg/mL (≈ 18.8 µM) | 12.7 µM | 8.3 µg/mL (≈ 18.8 µM) | 150 µg/mL (≈ 340 µM) | inactive | 15.4 µM | 8.3 µg/mL (≈ 18.8 µM) | 9.4 µg/mL (≈ 21.3 µM) | –
C/C(=C\c1csc(C)n1)[C@@H]1C[C@@H]2O[C@@H]2CCC[C@H](C)[C@H](O)[C@@H](C)C(=O)C(C)(C)[C@@H](O)CC(=O)O1 [EPOTHILONE A] | – | – | – | – | – | – | – | – | – | – | – | 0.0038 µM | – | – | –
